What follows are molecules tested against T1, arginase activity in intact BMM-M2 cells (Mus musculus, UniProt Q61176) (assay: Cell-based arginase assay: urea production by cultured BMM-M2 cells). Conditions: 10 μM test compound, 24 h.
T1 construct: endogenous in cells; host or cells: bone-marrow derived macrophages from male C57BL/6 mice, polarised to M2 with IL-4
T1 sequence (Q61176 1-323): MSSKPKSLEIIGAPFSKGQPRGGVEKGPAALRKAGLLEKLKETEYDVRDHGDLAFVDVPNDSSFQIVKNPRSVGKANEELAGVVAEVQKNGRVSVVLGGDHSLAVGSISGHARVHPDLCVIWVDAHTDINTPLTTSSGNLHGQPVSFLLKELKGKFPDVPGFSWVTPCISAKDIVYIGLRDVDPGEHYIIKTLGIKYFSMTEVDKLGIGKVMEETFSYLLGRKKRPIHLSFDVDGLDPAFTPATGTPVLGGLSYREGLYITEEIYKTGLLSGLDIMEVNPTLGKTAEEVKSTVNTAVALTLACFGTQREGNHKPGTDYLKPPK
Experimental: Murine bone-marrow derived macrophages (BMM) represent a convenient in vitro model that enables differentiation of these cells towards M1 or M2 macrophages. Briefly, male C57BL/6 mice 7-8 weeks old were euthanized by carbon dioxide asphyxiation. Femur and tibiae bones were removed under aseptic conditions and collected in a plate containing sterile ice-cold PBS 1×. After sterilization of bones in 70% ethanol during 1 min, bones were placed into a clean Petri dish containing fresh sterile ice-cold PBS 1×. The ends of each bone were cut and the marrow cavity was flushed using forceps and syringes filled with pre-warmed complete α-MEM growing medium (α-MEM without red phenol (Life Technologies, Cat. No. #41061-029) supplemented with 10% FBS, penicillin and streptomycin). Bone marrow (BM) cells were harvested in a 15 ml clean tube and centrifuged at 400 g for 8 min at RT. Supernatant was discarded and BM pellet was re-suspended in 5 ml Ammonium-Chloride-Potassium (ACK) buffer for 5 minutes at RT to lysis RBC. BM cell suspension was centrifuged at 400 g for 8 min at RT. Supernatant was discarded and BM cell pellet was re-suspended in complete α-MEM growing medium and passed through a 70 μm cell restrainer to eliminate solid contaminates and cellular aggregates. BM cells were seeded in 8 ml of complete α-MEM growing medium supplemented with 100 ng/ml recombinant mouse M-CSF (R&D Systems, Cat. No. #416-ML-050) in 100-mm dishes. BM cells were cultured overnight to get rid of contaminating stromal cells in a humidified incubator with 5% CO2 at 37° C. At the following day, non-adherent cells were collected in a clean 15-ml tube and centrifuged at 400 g for 8 min at RT. Cell pellet was re-suspended in complete α-MEM growing medium and counted using a hemocytometer Neubauer's chamber. Hematopoietic precursor cells were differentiated into BMM in presence of complete α-MEM growing medium supplemented 50 ng/ml M-CSF for 3 days. Finally to polarize BMM towards M2 phenotype, cells were incubated in presence 20 ng/ml of recombinant mouse IL-4 (R&D Systems, Cat. No. #404-ML-010) added to fresh complete α-MEM growing medium supplemented 50 ng/ml M-CSF for 24 h.
At the day of the experiment, BMM-M2 were treated for 24 h with vehicle (DMSO) or compounds of the invention at 1 and 10 μM prepared in fresh complete α-MEM growing medium supplemented 50 ng/ml M-CSF, 20 ng/ml IL-4 and 10 mM L-arginine (Cat. No. #A5006, Sigma Aldrich). At the next day, 70 μl aliquots of each treated culture media (supernatants) were transferred into a clear 96-well plate. Measurements of urea produced by BMM-M2 were performed using the adapted protocol detailed in Example B1. Wells without BMM-M2 containing only treatment media (vehicle) were used to determine the zero cell-derived urea production (blank). All treatments were carried out in triplicates.
The inhibition of urea production was calculated subtracting the absorbance from the blank to the absorbance from all treatments and it was expressed as the percentage of the absorbance from the reaction containing the test article treatment with respect to the absorbance from vehicle treatment (maximum of urea production).
`CC1(C)OB(CCCCC(N)(C(=O)O)C2CCN(C3CCCc4ccccc43)CC2)OC1(C)C` (stereo not shown) [Compound 77, 2-amino-2-(1-(1,2,3,4-tetrahydronaphthalen-1-yl)piperidin-4-yl)-6-(4,4,5,5-tetramethyl-1,3,2-dioxaborolan-2-yl)hexanoic acid] was tested, and the “Inh. urea production @10 μM (%)” value was “++ (25% < % inhibition < 15% at 10 μM test compound)”.
For `CC(c1ccccc1)N1CCC(C(N)(CCCCB(O)O)C(=O)O)CC1` (stereo not shown) [Compound 9, 2-amino-6-borono-2-(1-(1-phenylethyl)piperidin-4-yl)hexanoic acid], the “Inh. urea production @10 μM (%)” value was “++ (25% < % inhibition < 15% at 10 μM test compound)”.

Same assay, conditions: 10 μM test compound, 24 h, 10 µM
With `NC(CCCCB(O)O)(C(=O)O)C1CCN(C2CCc3ccccc32)CC1` (single isomer, unassigned) [Compound 2, 2-amino-6-borono-2-(1-(2,3-dihydro-1H-inden-1-yl)piperidin-4-yl)hexanoic acid] the “Inh. urea production @10 μM (%)” value was “+++ (% inhibition > 25 at 10 μM test compound)”.
In the case of `CC(c1ccccc1)N1CCC(C(N)(CCCCB(O)O)C(=O)O)CC1` (single isomer, unassigned) [Compound 11, 2-amino-6-borono-2-(1-(1-phenylethyl)piperidin-4-yl)hexanoic acid], the “Inh. urea production @10 μM (%)” value is reported as “+ (% inhibition < 15 at 10 μM)”.
In the case of `NC(CCCCB(O)O)(C(=O)O)C1CCN(C2CCCc3ccccc32)CC1` (single isomer, unassigned) [Compound 6, 2-amino-6-borono-2-(1-(1,2,3,4-tetrahydronaphthalen-1-yl)piperidin-4-yl)hexanoic acid], the “Inh. urea production @10 μM (%)” value is reported as “+ (% inhibition < 15 at 10 μM)”.

Same assay, conditions: 10 μM test compound, 24 h, read-out: Inh. urea production @10 μM (%)
Molecule `NC(CCCCB(O)O)(C(=O)O)C1CCN(C2CCc3cc(C(F)(F)F)ccc32)CC1` (single isomer, unassigned) [Compound 85, 2-amino-6-borono-2-[1-[5-(trifluoromethyl)indan-1-yl]-4-piperidyl]hexanoic acid] has an inhibition at 10 µM greater than 25%.
Work on `CNC(CCCCB(O)O)(C(=O)O)C1CCN(C2CCCc3ccccc32)CC1` (single isomer, unassigned) [Compound 79, 6-borono-2-(methylamino)-2-(1-(1,2,3,4-tetrahydronaphthalen-1-yl)piperidin-4-yl)hexanoic acid] yielded an inhibition at 10 µM greater than 25%.
`NC(CCCCB(O)O)(C(=O)O)C1CCN(C2CCCc3ccccc32)CC1` (single isomer, unassigned) [Compound 5, 2-amino-6-borono-2-(1-(1,2,3,4-tetrahydronaphthalen-1-yl)piperidin-4-yl)hexanoic acid] showed an inhibition at 10 µM greater than 25%.
Molecule `NC(CCCCB(O)O)(C(=O)O)C1CCN(C2CCCc3cc(Cl)ccc32)CC1` (single isomer, unassigned) [Compound 17, 2-amino-6-borono-2-(1-(6-chloro-1,2,3,4-tetrahydronaphthalen-1-yl)piperidin-4-yl)hexanoic acid] has an inhibition at 10 µM greater than 25%.
`NC(CCCCB(O)O)(C(=O)O)C1CCN(C2CCCc3ccc(F)cc32)CC1` (single isomer, unassigned) [Compound 83, 2-amino-6-borono-2-(1-(7-fluoro-1,2,3,4-tetrahydronaphthalen-1-yl)piperidin-4-yl)hexanoic acid] gave an inhibition at 10 µM greater than 25%.
With `NC(CCCCB(O)O)(C(=O)O)C1CCN(C2CCc3ccccc32)CC1` (single isomer, unassigned) [Compound 3, 2-amino-6-borono-2-(1-(2,3-dihydro-1H-inden-1-yl)piperidin-4-yl)hexanoic acid] the inhibition at 10 µM was less than 15%.
`NC(CCCCB(O)O)(C(=O)O)C1CCN(C2CCCCc3ccccc32)CC1` (single isomer, unassigned) [Compound 84, 2-amino-6-borono-2-(1-(6,7,8,9-tetrahydro-5H-benzo[7]annulen-5-yl)piperidin-4-yl)hexanoic acid] showed an inhibition at 10 µM greater than 25%.
`NC(CCCCB(O)O)(C(=O)O)C1CCN(C2CCc3ccccc32)CC1` (stereo not shown) [Compound 1, 2-amino-6-borono-2-(1-(2,3-dihydro-1H-inden-1-yl)piperidin-4-yl)hexanoic acid] was tested, and the inhibition at 10 µM was greater than 25%.
`NC(CCCCB(O)O)(C(=O)O)C1CCN(C2CCc3cc(Cl)ccc32)CC1` (single isomer, unassigned) [Compound 14, 2-amino-6-borono-2-[1-(5-chloroindan-1-yl)-4-piperidyl]hexanoic acid] showed an inhibition at 10 µM greater than 25%.
`NC(CCCCB(O)O)(C(=O)O)C1CCN(C2CCCc3ccccc32)CC1` (single isomer, unassigned) [Compound 4, 2-amino-6-borono-2-(1-(1,2,3,4-tetrahydronaphthalen-1-yl)piperidin-4-yl)hexanoic acid] gave an inhibition at 10 µM greater than 25%.
`CC(c1ccccc1)N1CCC(C(N)(CCCCB(O)O)C(=O)O)CC1` (single isomer, unassigned) [Compound 10, 2-amino-6-borono-2-(1-(1-phenylethyl)piperidin-4-yl)hexanoic acid] showed an inhibition at 10 µM greater than 25%.

— patent publication US20220017541A1, “INHIBITORS OF ARGINASE” (Black Belt Tx Ltd, priority 2018, published 2022)
